Results on twelve compounds are retold here after patent publication US5434188A, “1-ether and 1-thioether-naphthalene-2-carboxamides as inhibitors of cell adhesion and as inhibitors of the activation of HIV” (Warner-Lambert Company, priority 1994, dated 1995).

The term IC50 denotes the concentration that gives 50% inhibition. In general, inhibition refers to the change of the read-out against control, counted positive when it falls.

For assay [1], the system named is HIV-1 activation in OM-10.1 cells. The following applies: poster NCDDG/AIDS 1991; cited from earlier work.
The subject of assay [2] is CD4 down regulation and viral expression in HIV-infected cells. The following applies: Hamamoto, et al. 1989; cited from earlier work.
For assay [3], the system named is human neutrophil adhesion to TNF-α stimulated human umbilical vein endothelial cells. Kind of assay: Modified method: inhibition of human neutrophil adhesion to TNF-α stimulated HUVEC (ECA), calcein-labeled neutrophils. The following applies: for inhibition at 100 µM / inhibition at 33 µM: Neutrophil, neutrophils labeled with calcein; for inhibition at 100 µM: footnote d: 100 μM; for inhibition at 33 µM: footnote c: 33 μM. It counts as cell-based. The method, then: MODIFIED METHOD FOR DETERMINING THE INHIBITION OF HUMAN NEUTROPHIL ADHESION TO TNF-α STIMULATED HUMAN UMBILICAL VEIN ENDOTHELIAL CELLS
Second passage HUVEC (Clonetics Corporation, San Diego, Calif., CC-2617) were seeded into Corning (Corning glass works, Corning, N.Y.) 96-well cell culture plates at approximately 5×10^3 cells/well and grown to confluency in supplemented endothelial basal medium (EBM, MCDB-131, Clonetics, 10 ng/mL EGF, 1 μg/mL hydrocortisone, 0.4% bovine brain extract, 5% Fetal Bovine Serum). One day prior to running the assay, typically 3 days postseeding, the cultures were re-fed with 0.2 mL/well supplemented EBM (S-EBM).
Preparation of Test Compounds
Test compounds were prepared as 10 mL stock solutions at a concentration of 1.0 mM. The compound were initially solubilized in 0.1 mL DMSO followed by the addition of 9.9 mL S-EBM. The drug preparations were then diluted in one step to a concentration of 66.6 μM. Solubilizations and dilutions were performed in polystyrene containers.
Recombinant human tumor necrosis factor-α(TNF, Genzyme, Boston, Mass., code TNF-H) was prepared at 400 U/mL in S-EBM. Stock TNF was prepared to 20,000 U/mL in Delbecco's phosphate buffered saline (PBS, Gibco, Grand Island, N.Y.) plus 0.1% BSA and stored at -70° C. HUVEC were washed one time with 0.2 mL warm unsupplemented EBM and then stimulated for 4 hours at 37° C. with 200 U/mL TNF in the presence of 33.3 μM test compound. This was accomplished by adding 0.1 mL of 400 U/mL TNF and 0.1 mL 66.6 μM test compound. These additions were done slowly as to not disrupt the HUVEC monolayer. Each compound was tested in six wells. Unstimulated (Vehicle control) and TNF-stimulated without test compound treatments were also run in each plate.
One hour prior to adding the neutrophils to the HUVEC, neutrophils (5×10^6/ mL) were labeled for 30 minutes at 37° C. with 5 μM calcein-AM (Molecular Probes, Eugene, Oreg.) in Hanks' balanced salt solution plus 0.45% BSA. Stock calcein was prepared to 5 mM in anhydrous DMSO and stored desiccated at -20° C. At the end of the incubation the cells were washed two times in cold HBSS and resuspended to a final concentration of 1×10^6 cells/mL in unsupplemented EBM.
Addition of Neutrophils to HUVEC
At the end of the 4-hour stimulation and immediately prior to the addition of the neutrophils to the HUVEC monolayer, the plates were washed with 0.2 mL warm unsupplemented EBM to remove TNF and drug. Neutrophils (1×10^5 cells) were slowly added to each of the treated wells and incubated for 30 minutes at 37° C. At the end of the incubation the plates were washed two times with 0.2 mL warm unsupplemented EBM followed by a final addition of 0.1 mL for plate scanning.
Determination of Relative Fluorescence
The relative fluorescence was determined using a Millipore Cytofluor 2300 system (excitation=480, emission=530, sensitivity=4).
Results were expressed as means of percent inhibition of TNF-stimulated adherence, using the following equation: [formula]
Some of these compounds were tested at concentrations of 33.3 μM, 10.0 μM, 3.3 μM, and 1.0 μM to determine IC50 values. Linear regression analysis of the means of the inhibition values were used to determine the IC50.

For the next assay, the system named is ICAM-1. Kind of assay: ELISA of ICAM-1 on TNFα stimulated HUVEC. Type of assay: cell-based, human. The following applies: first of the two values. The method, then:
(§1) Murine monoclonal anti-human ICAM-1 (R & D Systems, Cat No. BBA-4) or murine monoclonal anti-human E-selectin (R & D, Cat No. BBA-2) dissolved in DMEM/2%BSA were added to each well at 0.5 μg/mL and allowed to incubate at 37° C. for 2 hours. HUVEC monocultures were then washed 4 times with DMEM/2%BSA. A peroxidase conjugated sheep anti-mouse IgG (Cappel) was added (1:3,000 dilution) and allowed to incubate 1 hour at 37° C. The cells were then washed 4 times with DMEM. A color reagent (Biorad) was added to the fixed cells and incubated 15 minutes at room temperature. The reaction was stopped with a 2% oxalic acid solution and the absorbance read at 414 nm on a titertek plate reader.
(§2) Compounds were dissolved in DMSO at a concentration of […] and diluted with media to obtain final testing concentrations. HUVECs received compound dissolved in media 30 minutes before the TNFα challenge. The absorbance of non-stimulated HUVECs was subtracted from the absorbance values of TNFα stimulated cells before percent inhibition was determined. Percent inhibition was determined by comparing the absorbance of vehicle treated cells with drug treated cells. IC50 s were determined using linear regression analysis.
(In an ELISA, binding on a coated surface is turned into a signal by an enzyme label.)

A further assay relates to E-selectin. Kind of assay: ELISA of E-selectin on TNFα stimulated HUVEC. It counts as cell-based, human. The following applies: second of the two values. The method, then:
as §1, §2

In assay [4] the test system is HIV-1 activation in OM-10.1 cells. Kind of assay: Inhibition of activation of latent HIV-1 in the OM-10.1 cell line (TNF-α induced). Type of assay: cell-based. The following applies: Human immunodeficiency virus 1, read-out: OM-10n (IC50 μM). From the text:
The cellular pathways involved in mediating the activating signal from the plasma membrane to the integrated virus, resulting in HIV-1 expression, are much less clear. Recently, the development of a reliable and simple system for evaluating compounds that could prevent activation of latent HIV was reported at the National […] (NCDDG)/AIDS by P. Feorino, S. T. Butera, T. M. Folks, and R. F. Schinazi, Nov. 3-7, 1991. The assay system employed the OM-10.1 cell line, a unique chronically-infected promyelocytic clone which remains CD4+ until HIV-1 activation with tumor necrosis factor-α. The expression of CD4+ on the cell surface and the activity of reverse transcriptase are used as markers for quantitating viral expression. Alternatively, other HIV markers, such as protease activity, which are known to those of skill in the art can be used. OM-10.1 cells remain CD4^+ until viral activation and respond to tumor necrosis factor induction, and therefore, these cultures are used to conveniently and rapidly examine pharmacologics for an ability […] down modulation (decrease in expression of CD4^+ on the cell surface) and HIV-1 expression.
A variety of compounds known to have antiviral properties against either acutely or chronically infected cells were evaluated for their ability to inhibit HIV expression in these OM-10.1 cells. […]

For assay [5], the system named is human neutrophil adhesion to TNF-α, IL-α, and LPS-stimulated human umbilical vein endothelial cells. Kind of assay: Inhibition of human neutrophil adhesion to stimulated human umbilical vein endothelial cells (ECA), 51Cr-labeled neutrophils. Type of assay: cell-based. The following applies: footnote b: 100 μM, neutrophils labeled with Cr. From the text: METHOD FOR DETERMINING THE INHIBITION OF HUMAN NEUTROPHIL ADHESION TO TNF-α, IL-α, AND LPS-STIMULATED HUMAN UMBILICAL VEIN ENDOTHELIAL CELLS (ECA)
Neutrophils were isolated from anticoagulant-treated venous blood obtained from healthy human volunteers according to the method of Ferrante and Thong (J. Immunol. Methods 24:389-393 (1978)). The cell preparations consisted of greater than 98% neutrophils.
Second passage human umbilical vein endothelial cells (HUVEC) (Clonetics, San Diego, Calif.) were seeded into Falcon 24-well cell culture plates (Becton Dickinson, Lincoln Park, N.J.) at approximately 2×10^4 cells per well. The cells were grown to confluent monolayers in endothelial basal medium (EBM, Clonetics) supplemented with 5% fetal calf serum (Hyclone Laboratories, Logan, Utah), 10 ng/mL EGF, 1 μg/mL hydrocortisone, 0.4% bovine brain extract (Clonetics) in 5% CO2 at 37° C. […]
Stimulation of HUVEC with tumor necrosis factor-α (TNF-α) (Genzyme, Cambridge, Mass.), interleukin (IL-1α) (Genzyme) or E. coli 0111:B4 lipopolysaccharide (LPS) (Sigma) in the presence or absence of drug was initiated 4 hours prior to the addition of neutrophils. […] Lysates were collected and the radioactivity in each well was determined by gamma ray spectroscopy. […]

Take `Cc1cn([C@H]2C[C@H](F)[C@@H](CO)O2)c(=O)[nH]c1=O` [3'-fluoro-3'-deoxythymidine (FLT), 3'-fluoro-3'-deoxythymidine]: the “inhibition of HIV-1 activation, in words” value in assay [1] is on record as “modest inhibitors of the activation of HIV-1”.
As to `CCCCCCCCCCCCCC(=O)O[C@@H]1[C@@H](C)[C@@]2(O)[C@@H](C=C(CO)C[C@]3(O)C(=O)C(C)=C[C@@H]23)[C@@H]2C(C)(C)[C@]12OC(C)=O` [12-0-tetradecanoylphorbol-13-acetate], in assay [2], the “effect on CD4 down regulation and HIV expression, in words” value was “mediates CD4 down regulation and viral expression in HIV-infected cells”.
`COc1ccc2ccc(C(N)=O)c(OC(C)C)c2c1` [Example 1, 7-Methoxy-1-(1-methylethoxy)-2-naphthalenecarboxamide]: the half-inhibitory concentration (IC50) was 11 µM in assay [3] (footnote a, neutrophil adhesion to stimulated HUVEC, neutrophil label not given) and 2.5 µM in assay [4]. Also, in the assay with ICAM-1, the “ICAM/ESEL % Inhib @ 30 μM: ICAM” value worked out at 77%. The “ICAM/ESEL % Inhib @ 30 μM: ESEL” value with E-selectin worked out at 84%.
Turning to `CCNC(=O)c1ccc2ccc(OC)cc2c1OC(C)C` [Example 2, N-Ethyl-7-methoxy-1-(1-methylethoxy)-2-naphthalenecarboxamide], the inhibition at 100 µM in assay [3] is 73%.
Take `COc1ccc2ccc(C(=O)NC(C)C)c(OC(C)C)c2c1` [Example 3, 7-Methoxy-1-(1-methylethoxy)-N-(1-methylethyl)-2-naphthalenecarboxamide]: in assay [3], the inhibition at 33 µM is 64%.
`COc1ccc2ccc(C(=O)NCc3ccccc3)c(OC(C)C)c2c1` [Example 4, 7-Methoxy-1-(1-methylethoxy)-N-(phenylmethyl)-2-naphthalenecarboxamide]: the inhibition at 100 µM in assay [3] was 14%.
`CC(C)Oc1ccc2ccc(C(N)=O)c(OC(C)C)c2c1` [Example 5, 1,7-Bis-(1-methylethoxy)-2-naphthalenecarboxamide] registered an inhibition at 100 µM in assay [5] of 45%. In addition, the IC50 in assay [4] was determined as 0.5 µM.
`COc1ccc2c(OC(C)C)c(C(N)=O)ccc2c1` [Example 6, 6-Methoxy-1-(1-methylethoxy)-2-naphthalenecarboxamide]: the inhibition at 33 µM in assay [3] is 9%.
On the same count and under the same terms, then `COc1ccc2ccc(C(N)=O)c(OC)c2c1` [Example 7, 1,7-Dimethoxy-2-naphthalenecarboximide], with 15%.
In the case of `CN[C@@H]1C[C@H]2O[C@@](C)([C@@H]1OC)n1c3ccccc3c3c4c(c5c6ccccc6n2c5c31)C(=O)NC4` [Staurosporine, staurosporine], the “effect on CD4 down regulation and HIV expression, in words” value in assay [2] is reported as “effective TPA inhibitor for both of these actions”.
On to `CC(=O)N(O)CCCCCNC(=O)CCC(=O)N(O)CCCCCNC(=O)CCC(=O)N(O)CCCCCN` [desferrioxamine], for which the “inhibition of HIV-1 activation, in words” value in assay [1] was “modest inhibitors of the activation of HIV-1”.
Turning to “interferon Y: modest inhibitor of the activation of HIV-1”, the “inhibition of HIV-1 activation, in words” value in assay [1] is reported as “modest inhibitors of the activation of HIV-1”.
